A short description of data set [1]: acute oral toxicity in mice. The following applies: mouse, in vivo. How it is done:
(§1) This is considered as an indication of the absence of inducing activity. These favorable pharmacological properties of the compounds of the present invention are accompanied by a low toxicity, lower than that of the prior-art compounds. As an example, while the acute oral toxicity of the prior-art 3,7-dihydro-6,7-dimethyl-5-phenylpyrrolo[3,4-e][1,4]diazepin-2(1H)-one in mice is about 500 mg/kg, that of the compound of example 5 of the present invention is comprised between 600 and 700 mg/kg and that of the compound of example 11 is higher than 20,000 mg/kg.

The subject of another data set is rats. Briefly: potentiation of hexobarbital-induced sleeping time in rats (inducing activity). The following applies: for potentiation of hexobarbital-induced "sleeping time": same conditions, higher doses than 1 mg/kg p.o. It is filed as in vivo. How it is done:
as §1

Data set [2] concerns benzodiazepine receptors. The experiment in a line: benzodiazepine receptors test in vivo (displacement of 3H-Diazepam from rat brain receptors). Here is the method: (§2) The anti-anxiety activity of the compounds of the present invention was first shown by submitting the compounds to the "benzodiazepine receptors" test both in vitro and in vivo.
(§3) The in vitro experiments were carried out by following the method described by H. Moler and T. Okada in Life Sciences Vol. 20, 2101-2110 (1977) while those in vivo were carried out according to the procedures illustrated by S. Lippa et al. in Pharmacol. Biochem. & Behaviour, Vol. 9, pp. 853-856 (1978).

The target of data set [3] is benzodiazepine receptors. Briefly: benzodiazepine receptors test in vitro (displacement of 3H-Diazepam from rat brain receptors). The format is binding. Here is the method: as §2, §3
In general terms: Loss of bound radioactivity is the signal in a displacement assay; it reports binding, not function.

The subject of another data set is monkeys. Briefly: taming effect test on naturally vicious and aggressive monkeys. The following applies: oral dose of 1 mg/kg. The format is in vivo. From the text: Another behavioural test which confirmed the anti-anxiety properties of the compounds of the present invention was the so-called "taming effect" test carried out on naturally vicious and aggressive monkeys.
The "taming effect" on monkeys is one of the most meaningful and reliable parameters with which the anti-anxiety properties of a compound can be investigated. […] A true "taming effect", as an indication of the anti-anxiety properties of a compound not ascribable to CNS-depression, is reached when the animals become docile and friendly so as to accept food from the observer's hand.

Data set [4] concerns mice (pentylenetetrazole-induced death). The experiment in a line: antipentylenetetrazole bioassay in mice (anticonvulsant activity). It is filed as in vivo. The following applies: oral; for ED50: Mus musculus, 2 h. How it is done: To evaluate the anticonvulsant activity the compounds of the present invention have been submitted to the antipentylenetetrazole bioassay in mice. The experiments have been carried out by following essentially the methodology described by Berger in J. Pharm. Exptl. Ther. 104, 468, (1952). More particularly, a fatal dose of pentylenetetrazole (140 mg/kg s.c.) was administered to groups of ten mice each, treated, 30 minutes before the administration of the convulsant agent, with a selected dose of the potential anticonvulsant compound. […] Since the animals of the control group died within 30 minutes, the effectiveness of the compounds tested, at each dose tested, was expressed as the number of animals of the group which were still alive two hours after the administration of pentylenetetrazole, out of the total number of animals of the group (10).
By testing each compound at different doses, the corresponding ED50, i.e. the dose at which 50% of the treated animals are protected, was calculated.
The same test was carried out also with 3,7-dihydro-6,7-dimethyl-5-phenyl-pyrrol[3,4-e][1,4]diazepin-2 (1H)-one (IX) [drawing 13]

The mark [5] stands for this setting: 30 minutes before pentylenetetrazole 140 mg/kg s.c., survival at two hours, read-out: ED50 (dose at which 50% of the treated animals are protected).

As a reminder, the LD50 is the dose expected to kill half of the subjects tested. Higher therefore signals a less toxic substance. For orientation: Ki means a measure of affinity in units of concentration, obtained from inhibition or displacement. Low values mean a stronger hold on the target, high ones a looser hold on the target. What is called ED50 is the midpoint of the dose-response relation.

Read-outs that look alike come from different tables or passages of the source. Bounds are passed on as bounds.

As to `Cc1c2c(cn1C)NC(=O)C(O)N=C2c1ccccc1` (stereo not shown) [Example 5, 1,7-Dihydro-3-hydroxy-6,7-dimethyl-5-phenyl-pyrrolo[3,4-e][1,4]diazepin-2(1H)-one], the LD50 in data set [1] was in the range of 600 to 700 mg/kg. Also, in the data set with rats, the “potentiation of hexobarbital-induced "sleeping time"” value is “did not show this potentiating effect even at higher doses”. The “"in vivo" % inhibition at 1 mg/kg/os” value with benzodiazepine receptors [2] is -45%. Moreover, on benzodiazepine receptors [3], the affinity corresponds to a Ki of 45.9 nM.

For `Cc1c2c(cn1C)NC(=O)C(O)N=C2c1ccccc1Cl` (stereo not shown) [Example 10], the “treated animals displaying a true "taming effect"” value in the data set with monkeys is recorded as “at least 50%”. Also, in data set [4] (setting [5]), the ED50 is 7.5 mg/kg.

As for `CC(=O)OC1N=C(c2ccccc2Cl)c2c(cn(C)c2C)NC1=O` (stereo not shown) [Example 9, 5-(2-chlorophenyl)-3-acetoxy-1,7-dihydro-6,7-dimethylpyrrolo[3,4-e][1,4]diazepin-2-(1H)-one], in data set [4] (setting [5]), the ED50 is 7.5 mg/kg.

As to `Cc1c2c(cn1C)N(C)C(=O)C(O)N=C2c1ccccc1Cl` (stereo not shown) [Example 11, 5-(2-Chlorophenyl)-1,7-dihydro-3-hydroxy-1,6,7-trimethylpyrrolo[3,4-e][1,4]diazepin-2(1H)-one], the median lethal dose (LD50) in data set [1] was more than 20000 mg/kg. Further, the “potentiation of hexobarbital-induced "sleeping time"” value in the data set on rats is “did not show this potentiating effect even at higher doses”. The “treated animals displaying a true "taming effect"” value with monkeys is given as “at least 50%”. Further, in the data set on benzodiazepine receptors [2], the “"in vivo" % inhibition at 1 mg/kg/os” value is listed as -54%. The ED50 in data set [4] (setting [5]) was 5 mg/kg. The compound also gave a Ki at benzodiazepine receptors [3] of 2.82 nM.

For the compound `Cc1c2c(cn1C)NC(=O)CN=C2c1ccccc1` [IX, 3,7-dihydro-6,7-dimethyl-5-phenyl-pyrrol[3,4-e][1,4]diazepin-2 (1H)-one, reference compound], the median lethal dose (LD50) in data set [1] was approximately 500 mg/kg. The “dose from which hexobarbital-induced "sleeping time" is potentiated” value with rats (p.o.) is listed as 1 mg/kg p.o. Moreover, the “"in vivo" % inhibition at 1 mg/kg/os” value in the data set with benzodiazepine receptors [2] is on record as -33%. For the same compound, in data set [4] (prior-art compound, calculated in the same way, read-out: ED50), the ED50 is 15 mg/kg. For the same compound, in data set [4] (comparison of ED50), the “anticonvulsant activity relative to the compounds of the present invention” value is “at least twice less active than the compounds of the present invention”. The compound further returned a Ki at benzodiazepine receptors [3] of 97 nM.

Source of the values: patent US4402970A, “1,7-Dihydro-pyrrolo[3,4-e][1,4]diazepin-2(1H)-one derivatives” (Gruppo Lepetit S.p.A., priority 1981, dated 1983).
